Test results reported in patent publication US12559529B2, “NPY2 receptor agonists” (Boehringer Ingelheim International GmbH, priority 2019, dated 2026).
*1 amine or outer side, *2 acyl side, *3 side chain or, on linkers, in order; H or OH if unused. Where a SMILES comes first, the peptide text is derived from it. Side-chain parts run from the residue outwards. The star is where a group is joined. C18 diacid = O=C(O)CCCCCCCCCCCCCCCCC(=O)*; γGlu = O=C(O)[C@H](CCC(=O)[*:2])N[*:1]; Isovaleryl = CC(C)CC(=O)*; AEEA = NCCOCCOCC(=O)O

molecular target: T1, Human Neuropeptide Y2 Receptor (Homo sapiens, UniProt P49146); test: Radioligand binding competition assay (RLB); conditions: Table 3; human 125I-PYY (1-36) 0.02 nM, Y2 receptor membranes; read-out: Ki
T1 construct: purchased CHEMICON HTS066M
T1 sequence (P49146 1-381): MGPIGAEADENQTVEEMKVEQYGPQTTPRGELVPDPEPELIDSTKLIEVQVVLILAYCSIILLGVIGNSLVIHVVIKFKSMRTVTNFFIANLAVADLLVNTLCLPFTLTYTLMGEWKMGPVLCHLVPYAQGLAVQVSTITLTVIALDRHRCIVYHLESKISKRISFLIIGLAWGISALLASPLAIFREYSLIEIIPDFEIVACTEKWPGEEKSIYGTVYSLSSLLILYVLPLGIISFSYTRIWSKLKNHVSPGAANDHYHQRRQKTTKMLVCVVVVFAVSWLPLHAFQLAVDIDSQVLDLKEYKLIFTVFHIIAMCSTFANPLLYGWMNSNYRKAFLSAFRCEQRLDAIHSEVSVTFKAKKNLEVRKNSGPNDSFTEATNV
Summary of the method: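 Membranes (0.5 μg/well) and test peptides, serially diluted from 1 mM DMSO stocks, were incubated 2 hours at room temperature in HEPES buffer pH 7.4 with Mg, Ca and ovalbumin.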

| SMILES | Ki [nM] |
| --- | --- |
| CC(C)CC(=O)N[C@@H](C)C(=O)N1CCC[C@H]1C(=O)N[C@@H](CCC(=O)O)C(=O)N[C@@H](CCCCNC(=O)COCCOCCNC(=O)COCCOCCNC(=O)CC[C@H](NC(=O)CCCCCCCCCCCCCCCCC(=O)O)C(=O)O)C(=O)N1CCC[C@H]1C(=O)N[C@@H](CCC(=O)O)C(=O)N[C@@H](CCC(=O)O)C(=O)N[C@@H](CC(=O)O)C(=O)N[C@@H](C)C(=O)N[C@@H](CO)C(=O)N1CCC[C@H]1C(=O)N[C@@H](CCC(=O)O)C(=O)N[C@@H](CCC(=O)O)C(=O)N[C@@H](CC(C)C)C(=O)N[C@@H](CCC(N)=O)C(=O)N[C@@H](CCCNC(=N)N)C(=O)N[C@@H](Cc1ccc(O)cc1)C(=O)N[C@@H](Cc1ccc(O)cc1)C(=O)N[C@H](C(=O)N[C@@H](CO)C(=O)N[C@H](C(=O)N[C@@H](CCCNC(=N)N)C(=O)N[C@@H](Cc1c[nH]cn1)C(=O)N[C@@H](Cc1ccc(O)cc1)C(=O)N[C@@H](Cc1ccc(O)cc1)C(=O)N[C@@H](CC(N)=O)C(=O)N[C@@H](Cc1c[nH]c2ccccc12)C(=O)N[C@@H](CC(C)C)C(=O)N[C@H](C(=O)N[C@@H](CCCNC(=N)N)C(=O)N[C@@H](CCC(N)=O)C(=O)N[C@@H](CCCNC(=N)N)C(=O)N[C@@H](Cc1ccc(O)cc1)C(N)=O)[C@@H](C)O)[C@@H](C)O)C(C)C [Compound 34, N{alpha-4}-(3-methylbutanoyl)-N{epsilon-7}-[2-(2-{2-[2-(2-{2-[(4S)-4-carboxy-4-(17-carboxyheptadecanamido)butanamido]ethoxy}ethoxy)acetamido]ethoxy}ethoxy)acetamido]-[4A,7K,9E,18Q,22V,24T,28Y,30W,31L]hPYY (4-36)] | 6.4 |
| CC(C)CC(=O)N[C@@H](C)C(=O)N1CCC[C@H]1C(=O)N[C@@H](CCC(=O)O)C(=O)N[C@@H](CCCCNC(=O)COCCOCCNC(=O)COCCOCCNC(=O)CC[C@H](NC(=O)CCCCCCCCCCCCCCCCC(=O)O)C(=O)O)C(=O)N[C@@H](C)C(=O)N[C@@H](CCC(=O)O)C(=O)N[C@@H](CCC(=O)O)C(=O)N[C@@H](CC(=O)O)C(=O)N[C@@H](C)C(=O)N[C@@H](CCC(=O)O)C(=O)N1CCC[C@H]1C(=O)N[C@@H](CCC(=O)O)C(=O)N[C@@H](CCC(=O)O)C(=O)N[C@@H](CC(C)C)C(=O)N[C@@H](CCC(N)=O)C(=O)N[C@@H](CCCNC(=N)N)C(=O)N[C@@H](Cc1ccc(O)cc1)C(=O)N[C@@H](Cc1ccc(O)cc1)C(=O)N[C@H](C(=O)N[C@@H](CO)C(=O)N[C@@H](CC(C)C)C(=O)N[C@@H](CCCNC(=N)N)C(=O)N[C@@H](Cc1c[nH]cn1)C(=O)N[C@@H](Cc1ccc(O)cc1)C(=O)N[C@@H](Cc1ccc(O)cc1)C(=O)N[C@@H](CC(N)=O)C(=O)N[C@@H](Cc1c[nH]c2ccccc12)C(=O)N[C@@H](CC(C)C)C(=O)N[C@H](C(=O)N[C@@H](CCCNC(=N)N)C(=O)N[C@@H](CCC(N)=O)C(=O)N[C@@H](CCCNC(=N)N)C(=O)N[C@@H](Cc1ccc(O)cc1)C(N)=O)[C@@H](C)O)C(C)C [Compound 36, N{alpha-4}-(3-methylbutanoyl)-N{epsilon-7}-[2-(2-{2-[2-(2-{2-[(4S)-4-carboxy-4-(17-carboxyheptadecanamido)butanamido]ethoxy}ethoxy)acetamido]ethoxy}ethoxy)acetamido]-[4A,7K,8A,9E,13E,18Q,22V,28Y,30W,31L]hPYY (4-36)] | 10.6 |
| CC(C)CC(=O)N[C@@H](C)C(=O)N1CCC[C@H]1C(=O)N[C@@H](CCC(=O)O)C(=O)N[C@@H](CCCCNC(=O)COCCOCCNC(=O)COCCOCCNC(=O)CC[C@H](NC(=O)CCCCCCCCCCCCCCCCC(=O)O)C(=O)O)C(=O)N1CCC[C@H]1C(=O)N[C@@H](CCC(=O)O)C(=O)N[C@@H](CCC(=O)O)C(=O)N[C@@H](CC(=O)O)C(=O)N[C@@H](C)C(=O)N[C@@H](CO)C(=O)N1CCC[C@H]1C(=O)N[C@@H](CCC(=O)O)C(=O)N[C@@H](CCC(=O)O)C(=O)N[C@H](C(=O)N[C@@H](CCC(N)=O)C(=O)N[C@@H](CCCNC(=N)N)C(=O)N[C@@H](Cc1ccc(O)cc1)C(=O)N[C@@H](CCC(=O)O)C(=O)N[C@H](C(=O)N[C@@H](CO)C(=O)N[C@@H](CC(C)C)C(=O)N[C@@H](CCCNC(=N)N)C(=O)N[C@@H](Cc1c[nH]cn1)C(=O)N[C@@H](Cc1ccc(O)cc1)C(=O)N[C@@H](Cc1ccc(O)cc1)C(=O)N[C@@H](CC(N)=O)C(=O)N[C@@H](Cc1c[nH]c2ccccc12)C(=O)N[C@@H](CC(C)C)C(=O)N[C@H](C(=O)N[C@@H](CCCNC(=N)N)C(=O)N[C@@H](CCC(N)=O)C(=O)N[C@@H](CCCNC(=N)N)C(=O)N[C@@H](Cc1ccc(O)cc1)C(N)=O)[C@@H](C)O)C(C)C)[C@@H](C)O [Compound 37, N{alpha-4}-(3-methylbutanoyl)-N{epsilon-7}-[2-(2-{2-[2-(2-{2-[(4S)-4-carboxy-4-(17-carboxyheptadecanamido)butanamido]ethoxy}ethoxy)acetamido]ethoxy}ethoxy)acetamido]-[4A,7K,9E,17T,18Q,21E,22V,28Y,30W,31L]hPYY (4-36)] | 4.85 |

More lines, in order of falling Ki, values ahead:

| Ki [nM] | SMILES |
| --- | --- |
| 4.84 | CC(C)CC(=O)N[C@@H](C)C(=O)N1CCC[C@H]1C(=O)N[C@@H](CCC(=O)O)C(=O)N[C@@H](CCCCNC(=O)COCCOCCNC(=O)COCCOCCNC(=O)CC[C@H](NC(=O)CCCCCCCCCCCCCCCCC(=O)O)C(=O)O)C(=O)N1CCC[C@H]1C(=O)N[C@@H](CCC(=O)O)C(=O)N[C@@H](CCC(=O)O)C(=O)N[C@@H](CC(=O)O)C(=O)N[C@H](C(=O)N[C@@H](CO)C(=O)N1CCC[C@H]1C(=O)N[C@@H](CCC(=O)O)C(=O)N[C@@H](CCC(=O)O)C(=O)N[C@@H](CC(C)C)C(=O)N[C@@H](CCC(N)=O)C(=O)N[C@@H](CCCNC(=N)N)C(=O)N[C@@H](Cc1ccc(O)cc1)C(=O)N[C@@H](CCC(=O)O)C(=O)N[C@H](C(=O)N[C@@H](CO)C(=O)N[C@@H](CC(C)C)C(=O)N[C@@H](CCCNC(=N)N)C(=O)N[C@@H](Cc1c[nH]cn1)C(=O)N[C@@H](Cc1ccc(O)cc1)C(=O)N[C@@H](Cc1ccc(O)cc1)C(=O)N[C@@H](CC(N)=O)C(=O)N[C@@H](Cc1c[nH]c2ccccc12)C(=O)N[C@@H](CC(C)C)C(=O)N[C@H](C(=O)N[C@@H](CCCNC(=N)N)C(=O)N[C@@H](CCC(N)=O)C(=O)N[C@@H](CCCNC(=N)N)C(=O)N[C@@H](Cc1ccc(O)cc1)C(N)=O)[C@@H](C)O)C(C)C)[C@@H](C)O [Compound 32, N{alpha-4}-(3-methylbutanoyl)-N{epsilon-7}-[2-(2-{2-[2-(2-{2-[(4S)-4-carboxy-4-(17-carboxyheptadecanamido)butanamido]ethoxy}ethoxy)acetamido]ethoxy}ethoxy)acetamido]-[4A,7K,9E,12T,18Q,21E,22V,28Y,30W,31L]hPYY (4-36)] (Isovaleryl-APEK([AEEA-AEEA-γGlu-C18 diacid])PEEDTSPEELQRYEVSLRHYYNWLTRQRY-NH2) |
| 1.21 | CC(C)CC(=O)N[C@@H](C)C(=O)N1CCC[C@H]1C(=O)N[C@@H](CCC(=O)O)C(=O)N[C@@H](CCCCNC(=O)COCCOCCNC(=O)COCCOCCNC(=O)CC[C@H](NC(=O)CCCCCCCCCCCCCCCCC(=O)O)C(=O)O)C(=O)N1CCC[C@H]1C(=O)N[C@@H](CCC(=O)O)C(=O)N[C@@H](CCC(=O)O)C(=O)N[C@@H](CC(=O)O)C(=O)N[C@@H](C)C(=O)N[C@@H](C)C(=O)N1CCC[C@H]1C(=O)N[C@@H](CCC(=O)O)C(=O)N[C@@H](CCC(=O)O)C(=O)N[C@H](C(=O)N[C@@H](CCC(N)=O)C(=O)N[C@@H](CCCNC(=N)N)C(=O)N[C@@H](Cc1ccc(O)cc1)C(=O)N[C@@H](Cc1ccc(O)cc1)C(=O)N[C@H](C(=O)N[C@@H](CO)C(=O)N[C@@H](CC(C)C)C(=O)N[C@@H](CCCNC(=N)N)C(=O)N[C@@H](Cc1c[nH]cn1)C(=O)N[C@@H](Cc1ccc(O)cc1)C(=O)N[C@@H](Cc1ccc(O)cc1)C(=O)N[C@@H](CC(N)=O)C(=O)N[C@@H](Cc1c[nH]c2ccccc12)C(=O)N[C@@H](CC(C)C)C(=O)N[C@H](C(=O)N[C@@H](CCCNC(=N)N)C(=O)N[C@@H](CCC(N)=O)C(=O)N[C@@H](CCCNC(=N)N)C(=O)N[C@@H](Cc1ccc(O)cc1)C(N)=O)[C@@H](C)O)C(C)C)[C@@H](C)O [Compound 35, N{alpha-4}-(3-methylbutanoyl)-N{epsilon-7}-[2-(2-{2-[2-(2-{2-[(4S)-4-carboxy-4-(17-carboxyheptadecanamido)butanamido]ethoxy}ethoxy)acetamido]ethoxy}ethoxy)acetamido]-[4A,7K,9E,13A,17T,18Q,22V,28Y,30W,31L]hPYY (4-36)] |
